pIC50, pKi: −log10 of the molar value.

For data set [1], the system named is inactivated state of the channel of interest (sodium channel). Briefly: Electrophysiological assay (whole cell voltage clamp, in vitro). It is filed as cell-based. Conditions: affinity for the inactivated state of the channel of interest. The protocol: Cells expressing the channel of interest are cultured in DMEM growth media (Gibco) with 0.5 mg/mL G418, +/−1% PSG, and 10% heat-inactivated fetal bovine serum at 37° C. and 5% CO2. For electrophysiological recordings, cells are plated on 10 mm dishes.
Whole cell recordings are examined by established methods of whole cell voltage clamp (Bean et al., op. cit.) using an Axopatch 200B amplifier and Clampex software (Axon Instruments, Union City, Calif.). All experiments are performed at ambient temperature. Electrodes are fire-polished to resistances of 2-4 Mohms Voltage errors and capacitance artifacts are minimized by series resistance compensation and capacitance compensation, respectively. Data are acquired at 40 kHz and filtered at 5 kHz. The external (bath) solution consists of: NaCl (140 mM), KCl (5 mM), CaCl2 (2 mM), MgCl2 (1 mM), HEPES (10 mM) at pH 7.4. The internal (pipette) solution consists of (in mM): NaCl (5), CaCl2 (0.1), MgCl2 (2), CsCl (10), CsF (120), HEPES (10), EGTA (10), at pH 7.2.
To estimate the steady-state affinity of compounds for the resting and inactivated state of the channel (Kr and Ki, respectively), 12.5 ms test pulses to depolarizing voltages from −60 to +90 mV from a holding potential of −120 m V is used to construct current-voltage relationships (I-V curves). A voltage near the peak of the IV-curve (−30 to 0 m V) is used as the test pulse throughout the remainder of the experiment. Steady-state inactivation (availability) curves are then constructed by measuring the current activated during a 8.75 ms test pulse following 1 second conditioning pulses to potentials ranging from −120 to −10 m V.
The steady-state voltage-dependence of binding of a compound to a sodium channel is determined by measuring the blockage of the ionic current at two holding potentials. Binding to rested-state channels is determined by using a holding potential of −120 mV, so that maximal availability is achieved. Binding to inactivated-state channels is evaluated at a holding potential such that only 10% of the channels are available to open. The membrane potential is held at this voltage for at least 10 seconds so that drug binding can equilibrate.
The apparent dissociation constant at each voltage is calculated with the equation:
[formula] where Kd is the dissociation constant (either Kr or Ki), and [Drug] is the concentration of the test compound.
The Example numbers provided in Table 3 correspond to the Examples herein: […]

Another data set concerns sodium channel. The data set can be described thus: Guanidine influx assay (14C-guanidine radiotracer flux, in vitro). The data set is classed as cell-based, human or rat. Conditions: guanidine influx assay using a known cell line that expresses a sodium channel. The essentials: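 Sodium channel block is measured as reduced 14C-guanidine uptake in cells stably expressing human or rat channels, stimulated with aconitine. Potency is given as IC50 from a four-parameter curve.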

The target in the next data set is CYP3A4 (Homo sapiens, UniProt P08684). The data set can be described thus: Cytochrome P450 (CYP450) Inhibition Assay, CYP3A4 (Vivid fluorescence, BOMCC substrate). The note with it: human, P450 Baculosomes (recombinant CYP3A4), probe BOMCC (Vivid substrate).
Chain of CYP3A4 (P08684 whole entry): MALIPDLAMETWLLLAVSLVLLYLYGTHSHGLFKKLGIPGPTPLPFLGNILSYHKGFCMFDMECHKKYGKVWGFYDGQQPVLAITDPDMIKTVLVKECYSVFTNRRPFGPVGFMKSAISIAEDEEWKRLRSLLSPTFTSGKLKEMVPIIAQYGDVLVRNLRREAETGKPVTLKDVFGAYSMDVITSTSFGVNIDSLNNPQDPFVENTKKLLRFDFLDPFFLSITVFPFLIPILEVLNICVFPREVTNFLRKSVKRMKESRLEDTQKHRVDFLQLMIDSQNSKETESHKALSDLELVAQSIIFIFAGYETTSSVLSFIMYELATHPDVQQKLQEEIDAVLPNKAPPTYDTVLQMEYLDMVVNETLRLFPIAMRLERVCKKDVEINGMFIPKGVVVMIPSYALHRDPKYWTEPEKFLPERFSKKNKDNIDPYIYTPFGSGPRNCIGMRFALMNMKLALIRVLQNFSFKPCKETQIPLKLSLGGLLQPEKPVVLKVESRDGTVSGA

Consider `O=C1N(Cc2cccnc2)c2ccccc2C12COc1cc3c(cc12)OCCO3` (stereo not shown) [Example 1.2, 1-(pyridin-3-ylmethyl)-2,3-dihydrospiro[furo[2,3-g][1,4]benzodioxine-8,3′-indol]-2′(1′H)-one], for which the melting point fell in the range of 142 to 143 °C. The compound further gave a pKi in data set [1] of under 6.52. Besides, the pIC50 with sodium channel (activity level class) was 7.00 to 9.00. At CYP3A4, the inhibition at 10 µM is under 50%.
As to `O=C1N(Cc2ccc(O)cn2)c2ccccc2[C@]12COc1cc3c(cc12)OCCO3` [Example 1.13, (8S)-1′-[(5-hydroxypyridin-2-yl)methyl]-2,3-dihydrospiro[furo[2,3-g][1,4]benzodioxine-8,3′-indol]-2′(1′H)-one], the melting point fell in the range of 256 to 258 °C. In data set [1], this compound gave a pKi of over 6.52. In the data set on sodium channel (activity level class), the negative logarithm of the IC50 (pIC50) was 6.00 to 7.00. The inhibition at 10 µM at CYP3A4 was under 50%.
In the same order, the values of `O=C1N(Cc2ccc(C(F)(F)F)o2)c2cc3c(cc2C12COc1cc4c(cc12)OCCO4)OCCO3` (stereo not shown) [Example 2.27, 6-((5-(trifluoromethyl)furan-2-yl)methyl)-2,3,3′,7′-tetrahydro-2′H-spiro[[1,4]dioxino[2,3-f]indole-8,8′-benzofuro[5,6-b][1,4]dioxin]-7(6H)-one] are 176 to 178 °C, over 6.52, 6.00 to 7.00 and over 50%.
On to `O=C1N(Cc2ccc(C(F)(F)F)o2)c2ccccc2C12COc1cc3c(cc12)OC(F)(F)O3` (stereo not shown) [Example 2.34, 2,2-difluoro-1′-{[5-(trifluoromethyl)furan-2-yl]methyl}spiro[furo[2,3-f][1,3]benzodioxole-7,3′-indol]-2′(1′H)-one], for which the melting point was 59 to 60 °C. The same compound showed a negative logarithm of the Ki (pKi) in data set [1] of under 6.52. The negative-log IC50 (pIC50) with sodium channel (activity level class) is 6.00 to 7.00. The inhibition at 10 µM on CYP3A4 was over 50%.
Compound `COCCOCCN1C(=O)C2(COc3cc4c(cc32)OCCO4)c2cc3c(cc21)OCCO3` (stereo not shown) [Example 2.65, 6-[2-(2-methoxyethoxy)ethyl]-2,2′,3,3′-tetrahydrospiro[1,4-dioxino[2,3-f]indole-8,8′-furo[2,3-g][1,4]benzodioxin]-7(6H)-one] had a melting point of 146 to 148 °C. In data set [1], this compound showed a pKi of under 6.52. The pIC50 with sodium channel (activity level class) is 5.00 to 6.00. On CYP3A4, the inhibition at 10 µM is under 50%.
In turn, `COc1cc2c(cc1C)C1(CO2)C(=O)Nc2ccccc21` (stereo not shown) [Example 3, 6-methoxy-5-methylspiro[1-benzofuran-3,3′-indol]-2′(1′H)-one] returned a melting point of over 250 °C. Further, in data set [1], the pKi is under 6.52. In the data set with sodium channel (activity level class), the negative-log IC50 (pIC50) is 5.00 to 6.00. Moreover, at CYP3A4, the inhibition at 10 µM was over 50%.
Compound `COc1cc2c(cc1C#N)C1(CO2)C(=O)Nc2ccccc21` (stereo not shown) [Example 3.29, 6-methoxy-2′-oxo-1′,2′-dihydrospiro[1-benzofuran-3,3′-indole]-5-carbonitrile] returned a melting point of 185 to 186 °C. In addition, the pKi in data set [1] was under 6.52. Moreover, the pIC50 with sodium channel (activity level class) was 5.00 to 6.00. The inhibition at 10 µM on CYP3A4 was under 50%.
In the case of `O=C1Nc2cccc(-c3cnc4ccccc4c3)c2C12COc1cc3c(cc12)OCCO3` (stereo not shown) [Example 3.34, 4′-quinolin-3-yl-2,3-dihydrospiro[furo[2,3-g][1,4]benzodioxine-8,3′-indol]-2′(1′H)-one], the melting point lay within 221 to 224 °C. This compound also gave a pKi in data set [1] of under 6.52. The pIC50 in the data set on sodium channel (activity level class) is 6.00 to 7.00. In addition, the inhibition at 10 µM on CYP3A4 was over 50%.
Compound `O=C1Nc2cccc(-c3ccc(Oc4ccccc4)cc3)c2C12COc1cc3c(cc12)OCCO3` (stereo not shown) [Example 3.35, 4′-(4-phenoxyphenyl)-2,3-dihydrospiro[furo[2,3-g][1,4]benzodioxine-8,3′-indol]-2′(1′H)-one] came in with a melting point of 243 to 246 °C. The compound further showed a pKi in data set [1] of under 6.52. For the same compound, the pIC50 in the data set with sodium channel (activity level class) was 6.00 to 7.00. On CYP3A4, the inhibition at 10 µM is over 50%.
Take `O=C1Nc2ccccc2C12COc1ccc3nonc3c12` (stereo not shown) [Example 3.41, spiro[furo[3,2-e][2,1,3]benzoxadiazole-8,3′-indol]-2′(1′H)-one]: the melting point is over 220 °C. Moreover, the pKi in data set [1] is under 6.52. Also, the pIC50 with sodium channel (activity level class) is 5.00 to 6.00. Besides, on CYP3A4, the inhibition at 10 µM is under 50%.
On to `O=C1N(C[C@H]2COCCO2)c2ccccc2[C@]12COc1cc3c(cc12)OCCO3` [Example 8.7, (8S)-1′-[(2S)-1,4-dioxan-2-ylmethyl]-2,3-dihydrospiro[furo[2,3-g][1,4]benzodioxine-8,3′-indol]-2′(1′H)-one], for which the melting point is 198 to 200 °C. In data set [1], this compound gave a pKi of under 6.52. Besides, the negative-log IC50 (pIC50) in the data set with sodium channel (activity level class) is 7.00 to 9.00.
Consider `COc1cc2c(cc1C)[C@@]1(CO2)C(=O)N(CN2CCN(C)CC2)c2ccccc21` [Example 11.64, (3S)-6-methoxy-5-methyl-1′-[(4-methylpiperazin-1-yl)methyl]spiro[1-benzofuran-3,3′-indol]-2′(1′H)-one hydrogen chloride], for which, in data set [1], the pKi was under 6.52. Further, in the data set with sodium channel, the negative-log IC50 (pIC50) was 7.00 to 9.00. The inhibition at 10 µM at CYP3A4 was under 50%.
In the same order, the values of `O=C1N(C[C@H]2CCCO2)c2ccccc2[C@@]12COc1cc3c(cc12)CCO3` [Example 11.67, (3R)-1′-[(2R)-tetrahydrofuran-2-ylmethyl]-5,6-dihydrospiro[benzo[1,2-b:5,4-b′]difuran-3,3′-indol]-2′(1′H)-one] are under 6.52, 5.00 to 6.00 and under 50%.
In data set [1], `O=C1N(C[C@@H]2CCCO2)c2ccccc2[C@]12COc1cc3c(cc12)CCO3` [Example 11.69, (3S)-1′-[(2S)-tetrahydrofuran-2-ylmethyl]-5,6-dihydrospiro[benzo[1,2-b:5,4-b′]difuran-3,3′-indol]-2′(1′H)-one] showed a pKi of under 6.52. In addition, in the data set on sodium channel, the pIC50 is 5.00 to 6.00. Further, the inhibition at 10 µM on CYP3A4 was under 50%.
In data set [1], `CN(C)c1ccc(-c2cccc3c2C2(COc4cc5c(cc42)CCO5)C(=O)N3C[C@H]2CCCO2)cn1` (stereo partly drawn) [Example 16, 4′-[6-(dimethylamino)pyridin-3-yl]-1′-[(2R)-tetrahydrofuran-2-ylmethyl]-5,6-dihydrospiro[benzo[1,2-b:5,4-b′]difuran-3,3′-indol]-2′(1′H)-one] gave a pKi of under 6.52. Moreover, in the data set with sodium channel, the negative logarithm of the IC50 (pIC50) was 6.00 to 7.00. The inhibition at 10 µM on CYP3A4 is over 50%.
With `O=C1N(C[C@H]2CCCO2)c2cccc(-c3ccc(Oc4ccccc4)cc3)c2C12COc1cc3c(cc12)CCO3` (stereo partly drawn) [Example 16.6, 4′-(4-phenoxyphenyl)-1′-[(2R)-tetrahydrofuran-2-ylmethyl]-5,6-dihydrospiro[benzo[1,2-b:5,4-b′]difuran-3,3′-indol]-2′(1′H)-one], the negative-log Ki (pKi) in data set [1] is over 6.52. For the same compound, in the data set on sodium channel, the negative-log IC50 (pIC50) is 6.00 to 7.00. The inhibition at 10 µM at CYP3A4 was under 50%.
Turning to `CC(C)COc1ccc(-c2cccc3c2C2(COc4cc5c(cc42)CCO5)C(=O)N3C[C@H]2CCCO2)cc1` (stereo partly drawn) [Example 16.7, 4′-[4-(2-methylpropoxy)phenyl]-1′-[(2R)-tetrahydrofuran-2-ylmethyl]-5,6-dihydrospiro[benzo[1,2-b:5,4-b′]difuran-3,3′-indol]-2′(1′H)-one], in data set [1], the pKi is over 6.52. Besides, the pIC50 with sodium channel is 6.00 to 7.00. On CYP3A4, the inhibition at 10 µM is under 50%.
In the same order, the values of `COc1ccc(-c2cccc3c2C2(COc4cc5c(cc42)CCO5)C(=O)N3C[C@H]2CCCO2)cc1` (stereo partly drawn) [Example 16.9, 4′-(4-methoxyphenyl)-1′-[(2R)-tetrahydrofuran-2-ylmethyl]-5,6-dihydrospiro[benzo[1,2-b:5,4-b′]difuran-3,3′-indol]-2′(1′H)-one] are over 6.52, 7.00 to 9.00 and over 50%.
Take `O=C1N(C[C@H]2CCCO2)c2cccc(-c3cncnc3)c2C12COc1cc3c(cc12)CCO3` (stereo partly drawn) [Example 16.10, 4′-pyrimidin-5-yl-1′-[(2R)-tetrahydrofuran-2-ylmethyl]-5,6-dihydrospiro[benzo[1,2-b:5,4-b′]difuran-3,3′-indol]-2′(1′H)-one]: the negative logarithm of the Ki (pKi) in data set [1] was under 6.52. The negative logarithm of the IC50 (pIC50) with sodium channel was 5.00 to 6.00. The inhibition at 10 µM on CYP3A4 is over 50%.

What is called pKi is −log10 of the Ki, conventionally taken in molar units. The low end stands for a high Ki, the high end for a low Ki. By melting point is commonly meant the temperature, or range, at which the solid turns liquid. In general, pIC50 refers to the negative decadic logarithm of the IC50, by convention in mol/L. For orientation: inhibition means how much of the control response was suppressed.

These data come from US8263606B2 (Xenon Pharmaceuticals Inc., priority 2008, dated 2012).
